Source: publication PMC8588467, “Rational Design 2-Hydroxypropylphosphonium Salts as Cancer Cell Mitochondria-Targeted Vectors: Synthesis, Structure, and Biological Properties” (Molecules, 2021)

Key:
[1] = test system: PC3 (human prostate adenocarcinoma); assay: MTT cytotoxicity, PC3; conditions: for IC50: Homo sapiens, read-out: IC50 PC3, MTT, mean ± SD, triplicate; for SI PC3: IC50 normal cells (WI38) / IC50 cancer cells, ns = no selectivity
[2] = test system: HuTu 80 (human duodenal adenocarcinoma); assay: MTT cytotoxicity, HuTu 80; format: cell-based; conditions: for IC50: Homo sapiens, HuTu80, MTT, mean ± SD, triplicate; for SI HuTu 80: IC50 normal cells (WI38) / IC50 cancer cells, ns = no selectivity
[3] = test system: T98G glioblastoma cell line; assay: MTT cytotoxicity, T98G; format: cell-based, human; conditions: for IC50: Homo sapiens, T98G, MTT, mean ± SD, triplicate; for SI T98G: IC50 normal cells (WI38) / IC50 cancer cells, ns = no selectivity
[4] = test system: WI38 (diploid human embryo lung); assay: MTT cytotoxicity, normal cells WI38; format: cell-based; conditions: Homo sapiens, WI-38, MTT; mean ± SD, triplicate; read-out: WI38 IC50 (normal cell line)
HuTu-80 cells [5] = assay: Intracellular ROS production, CellROX Deep Red flow cytometry; format: cell-based, human; conditions: for CellROX Deep Red fluorescence intensity (ROS production): control 600; for ROS generation: compared to 3a and 3b and control (untreated cells)
Text: Increasing the production of reactive oxygen species (ROS) by compounds characterizes the mitochondrial apoptotic pathway. Mitochondria are a potential source and target of ROS. ROS lead to disruption of mitochondrial functions and, as a consequence, to irreversible cell damage. In this regard, the effect of test compounds in HuTu-80 cells on ROS production, using flow cytometry analysis and CellROX® Deep Red flow cytometry kit was investigated. Data presented in Figure 7 show a significant increase in CellROX® Deep Red fluorescence intensity. This indicates an increase in ROS production in the presence of the tested compounds.
ROS generation was investigated using flow cytometry assay and CellROX® Deep Red flow cytometry kit. For this HuTu 80 cells were harvested at 2000 rpm for 5 min and then washed twice with ice-cold PBS, followed by resuspension in 0.1 mL of medium without FBS, to which was added 0.2 μL of Cell ROX® Deep Red and incubated at 37 °C for 30 min After three times washing the cells and suspending them in PBS, the production of ROS in the cells was immediately monitored using flow cytometer Guava easy Cyte, MERCK, NJ, USA).

[6] = test system: A549 (human lung carcinoma); assay: MTT cytotoxicity, A549; format: cell-based; conditions: for IC50: Homo sapiens, A549, MTT, mean ± SD, triplicate; for SI A549: IC50 normal cells (WI38) / IC50 cancer cells, ns = no selectivity
[7] = test system: MCF-7 (human breast adenocarcinoma); assay: MTT cytotoxicity, MCF-7; format: cell-based; conditions: for IC50: Homo sapiens, MCF7, MTT, mean ± SD, triplicate; for SI MCF-7: IC50 normal cells (WI38) / IC50 cancer cells, ns = no selectivity
HuTu-80 cells [8] = assay: Mitochondrial membrane potential, JC-10 flow cytometry; format: cell-based, human; conditions: for % cells with J-aggregate (red, high membrane potential) / % cells with J-monomer (green, decreased membrane potential): JC-10; for effect on mitochondrial membrane potential: more pronounced with increase of concentration up to IC50
Text: Apoptosis induction by 3a, b, k, j and 4c through the mitochondrial pathway and HuTu-80 cell line was studied by flow cytometry using the fluorescent dye JC-10 from the Mitochondria Membrane Potential Kit. JC-10 accumulated in the mitochondrial matrix and formed aggregates (J-aggregate) with red fluorescence in normal cells with a high mitochondrial membrane potential. The membrane potential decreased in apoptotic cells. JC-10 started to diffuse out from the mitochondria and converts to the monomeric form (J-monomer) and emits green fluorescence. This is recorded with a flow cytometer. […] The process became more pronounced with an increase of 3a, b, 3k, j and 4c concentrations up to IC50 (Figure 5 and Figure 6).
Cells were harvested at 2000 rpm for 5 min and then washed twice with ice-cold PBS, followed by resuspension in JC-10 (10 µg/mL) and incubation at 37 °C for 10 min. After the cells were rinsed three times and suspended in PBS, the JC-10 fluorescence was observed by flow cytometry (Guava easy Cyte, MERCK, NJ, USA).

HuTu-80 cells [9] = assay: Induction of apoptosis, annexin V/propidium iodide flow cytometry; format: cell-based, human; conditions: IC50/2, 48-h incubation
Procedure: Apoptosis is one of the most significant mechanisms used for screening new anti-cancer agents. The apoptosis-inducing effect was carried out on lead compounds 3a, b, k, j and 4c showing high selectivity against HuTu-80 cells. The studies were carried out by flow cytometry at concentrations IC50/2 and IC50 (Figure 4). […] The percentage of apoptotic cells in early and late phases was slightly changed with increase compound concentration up to IC50.
HuTu 80 cells at 1 × 10^6 cells/well in a final volume of 2 mL were seeded into six-well plates. After 48 h of incubation, various concentrations of compounds 3a,b and 3k were added to wells.
The cells were harvested at 2000 rpm for 5 min and, then, washed twice with ice-cold PBS, followed by resuspension in binding buffer. Next, the samples were incubated with 5 μL of annexin V-Alexa Fluor 647 (Sigma–Aldrich, St. Louis, MO, USA) and 5 μL of propidium iodide for 15 min at room temperature in the dark. Finally, the cells were analyzed by flow cytometry (Guava easy Cyte, MERCK, Rahway, NJ, USA) within 1 h. The experiments were repeated three times.

[10] = test system: M-HeLa (human cervix epitheloid carcinoma); assay: MTT cytotoxicity, M-HeLa; format: cell-based; conditions: for IC50: Homo sapiens, M-HeLa, MTT, mean ± SD, triplicate; for SI M-HeLa: IC50 normal cells (WI38) / IC50 cancer cells, ns = no selectivity
human cancer cell lines = assay: MTT cytotoxicity, summary statements over several cell lines; format: cell-based

| SMILES | IC50 [1] [µM] | SI PC3 [1] | IC50 [2] [µM] | SI HuTu 80 [2] | IC50 [3] [µM] | SI T98G [3] | IC50 [4] [µM] | CellROX Deep Red fluorescence intensity (ROS production) (HuTu-80 cells [5]; IC50, 48 h) | CellROX Deep Red fluorescence intensity (ROS production) (HuTu-80 cells [5]; IC50/2, 48 h) | IC50 [6] [µM] | SI A549 [6] | IC50 [7] [µM] | SI MCF-7 [7] | % cells with J-aggregate (red, high membrane potential) (HuTu-80 cells [8]; IC50, 48 h) [%] | % cells with J-monomer (green, decreased membrane potential) (HuTu-80 cells [8]; IC50, 48 h) [%] | % cells with J-aggregate (red, high membrane potential) (HuTu-80 cells [8]; IC50/2, 48 h) [%] | % cells with J-monomer (green, decreased membrane potential) (HuTu-80 cells [8]; IC50/2, 48 h) [%] | effect on mitochondrial membrane potential (HuTu-80 cells [8]) | IC50 [10] [µM] | SI M-HeLa [10] | other results |
| --- | --- | --- | --- | --- | --- | --- | --- | --- | --- | --- | --- | --- | --- | --- | --- | --- | --- | --- | --- | --- | --- |
| OC(CCl)C[P+](c1ccccc1)(c1ccccc1)c1ccccc1 (stereo not shown) [3a, (3-Chloro-2-hydroxypropyl)triphenylphosphonium trifluoromethanesulfonate] | 45 ± 3.6 | ns | 10.1 ± 0.8 | 4 | 64.3 ± 5.3 | ns | 37.5 ± 3.1 | 1500 | 1000 | 64.4 ± 4.9 | ns | 56.1 ± 4.5 | ns | 39.4 | 60.6 | 40.7 | 59.2 | decrease the mitochondrial membrane potential | 66.7 ± 5.5 | ns | apoptosis induction (HuTu-80 cells [9]): actively induce apoptosis |
| OC(CBr)C[P+](c1ccccc1)(c1ccccc1)c1ccccc1 (stereo not shown) [3b, (3-Bromo-2-hydroxypropyl)triphenylphosphonium trifluoromethanesulfonate] | 23.3 ± 1.9 | ns | 3 ± 0.1 | 5 | 56 ± 4.5 | ns | 13.8 ± 1.1 | 1580 | 1200 | > 100 | ns | 34 ± 2.6 | ns | 48.1 | 51.9 | 54.5 | 45.5 | decrease the mitochondrial membrane potential | 30.1 ± 2.4 | ns | apoptosis induction (HuTu-80 cells [9]): actively induce apoptosis |
| CCCCCCCCCCOCC(O)C[P+](c1ccccc1)(c1ccccc1)c1ccccc1 (stereo not shown) [3j, (3-(Decyloxy)-2-hydroxypropyl)triphenylphosphonium trifluoromethanesulfonate] | 0.6 ± 0.05 | 5.2 | 0.5 ± 0.03 | 6.2 | 1.7 ± 0.1 | 2 | 3.1 ± 0.2 | 3700 | 2500 | 3.7 ± 0.3 | ns | 2.9 ± 0.2 | 1.1 | 50.1 | 48.2 | 89.6 | 10.4 | decrease the mitochondrial membrane potential | 1.1 ± 0.09 | 3 | cytotoxic effect against the PC3 line relative to doxorubicin ([1]; words): two times higher than doxorubicin; anti-cancer activity against the HuTu 80 cell line relative to doxorubicin ([2]; words): comparable to doxorubicin activity; ROS generation (HuTu-80 cells [5]): most active to generate ROS; apoptosis induction (HuTu-80 cells [9]): actively induce apoptosis; IC50 (human cancer cell lines; Homo sapiens, HuTu80, lines other than HuTu 80 and PC3, read-out: IC50 concentration values against other human cancer lines): 1.1 to 3.7 µM |
| CCCCCCCCCCCCCCCC(=O)OCC(O)C[P+](c1ccccc1)(c1ccccc1)c1ccccc1 (stereo not shown) [3k, (2-Hydroxy-3-palmitoyloxy-propyl)triphenylphosphonium trifluoromethanesulfonate] | 25 ± 2 | ns | 3.5 ± 0.3 | 5 | 55.8 ± 4.7 | ns | 16.2 ± 1.3 | 3800 | 2000 | 54.7 ± 4.4 | ns | 30.5 ± 2.5 | ns | 26.2 | 73.8 | 35 | 65 | decrease the mitochondrial membrane potential | 40.3 ± 3.5 | ns | ROS generation (HuTu-80 cells [5]): most active to generate ROS; apoptosis induction (HuTu-80 cells [9]): actively induce apoptosis |
| COc1cccc2c1C(=O)c1c(O)c3c(c(O)c1C2=O)C[C@@](O)(C(=O)CO)C[C@@H]3O[C@H]1C[C@H](N)[C@H](O)[C@H](C)O1 [Dox, doxorubicin, reference compound] | 1.4 ± 0.1 | ns | 0.2 ± 0.01 | 4 | 2 ± 0.1 | ns | 0.8 ± 0.07 |  |  | 0.7 ± 0.5 | 1.1 | 0.4 ± 0.03 | 2 |  |  |  |  |  | 2.1 ± 0.1 | ns | selectivity relative to the leading compounds (human cancer cell lines): significantly inferior to the leading compounds in selectivity |
